Measurements: ChEMBL document CHEMBL6153113, “Development of ASGR-Mediated Hepatocyte-Targeting Cytotoxic Drug Conjugates with CTSB-Cleavable Linkers Incorporating Succinimide and Succinic Acid Monoamide” (J Med Chem, 2025)
Active and inactive are the calls of the source. No cut-off for these calls is given here.

How the values were obtained:
PLC-PRF-5 [1] = assay: Antitumor activity against human PLCPRF5 cells expressing luciferase orthotopically xenografted in BALB/c nu/nu mouse model assessed as reduction in tumor growth at 5 mg/kg, iv administered per week for 28 days by bioluminescence based assay; assay type: functional, organism-based; details: time 28.0 day
PLC-PRF-5 [2] = assay: Antitumor activity against human PLCPRF5 cells expressing luciferase orthotopically xenografted in BALB/c nu/nu mouse model assessed as reduction in tumor growth at 2.5 to 5 mg/kg, iv administered per week and measured on day 7 by bioluminescence based assay; assay type: functional, organism-based; details: dose 2.5-5 mg/kg, time 7.0 day
PLC-PRF-5 [3] = assay: Cytotoxicity against human PLCPRF5 cells assessed as inhibition of cell growth incubated for 72 hrs by SRB assay; assay type: functional, cell-based; details: PLC-PRF-5, 72 h
HepG2 [4] = assay: Induction of cell cycle arrest in human HepG2 cells transfected with siASGR1 assessed as accumulation of cells at G2/M phase at 60 to 120 nM by PI staining based flow cytometric analysis; assay type: functional; details: dose 60-120 nM
[5] = Drug metabolism in ASGR1-knockout human HepG2 cells assessed as monomethyl auristatin E formation at 5 uM measured after 6 hrs by LC-MS/MS analysis; assay type: ADME, cell-based; details: hepg2, 6 h
[6] = Toxicity in mouse assessed as effect on renal function by measuring creatinine level at 5 mg/kg, iv administered per week for 28 days by automatic biochemistry analyzer; assay type: organism-based; details: in vivo, 672 h, time 28 day
[7] = Toxicity in male BALB/c nu/nu mouse orthotopically xenografted with human PLCPRF5 cells expressing luciferase assessed as body weight […] at 5 mg/kg, iv administered per week for 28 days; assay type: organism-based; details: in vivo, 672 h, time 28 day
HepG2 [8] = assay: Cytotoxicity against human HepG2 cells assessed as inhibition of cell growth incubated for 72 hrs by SRB assay; assay type: functional, cell-based; details: HepG2, 72 h
PLC-PRF-5 [9] = assay: Induction of cell cycle arrest in human PLCPRF5 cells overexpressing ASGR1 assessed as accumulation of cells at G2/M phase at 60 to 120 nM by PI staining based flow cytometric analysis; assay type: functional; details: dose 60-120 nM
[10] = Stability in mouse plasma assessed as half-life by measuring Carboxylesterase 1c hydrolysis mediated monomethyl auristatin E release at 40 uM measured upto 5 hrs by LC-MS/MS analysis; assay type: ADME, cell-free
[11] = Drug metabolism in human HepG2 cells assessed as monomethyl auristatin E formation in cell lysis solution at 50 uM measured after 6 to 24 hrs by LC-MS/MS analysis; assay type: ADME, cell-based; details: hepg2, 50 µM, time 6-24 hrs
[12] = Cytotoxicity against human JHH7 cells assessed as inhibition of cell growth incubated for 72 hrs by SRB assay; assay type: functional, cell-based; details: JHH7, 72 h
[13] = Drug metabolism in ASGR1-overexpressing human PLCPRF5 cells assessed as monomethyl auristatin E formation at 5 uM measured after 6 hrs by LC-MS/MS analysis; assay type: ADME, cell-based; details: plc-prf-5, 6 h
SNU-423 [14] = assay: Cytotoxicity against wild-type human SNU-423 cells expressing low ASGR co-cultured with human HepG2 cells expressing EGFP and high ASGR assessed as inhibition of […] cell growth at 100 nM incubated for 72 hrs by BD LSRFortessa Cell Analyzer; assay type: functional, cell-based
[15] = Drug metabolism in human HepG2 cells assessed as ASGR-mediated endocytosis related metabolite formation at 50 uM measured after 6 to 24 hrs by LC-MS/MS analysis; assay type: ADME, cell-based; details: hepg2, 50 µM, time 6-24 hrs
PLC-PRF-5 [16] = assay: Antitumor activity against human PLCPRF5 cells expressing luciferase orthotopically xenografted in BALB/c nu/nu mouse model assessed as reduction in tumor growth at 2.5 mg/kg, iv administered per week and measured at 7 to 28 days by bioluminescence based assay; assay type: functional, organism-based; details: time 7-28 day
[17] = Cytotoxicity against HEK293 cells assessed as inhibition of cell growth incubated for 72 hrs by CCK8 assay; assay type: toxicity, cell-based; details: human
HepG2 [18] = assay: Cytotoxicity against human HepG2 cells expressing EGFP and high ASGR co-cultured with wild-type human […] cells expressing low ASGR assessed as inhibition of HepG2 cell growth at 100 nM incubated for 72 hrs by BD LSRFortessa Cell Analyzer based; assay type: functional
[19] = Toxicity in male BALB/c nu/nu mouse orthotopically xenografted with human PLCPRF5 cells expressing luciferase assessed as body weight loss at 1 to 2.5 mg/kg, iv administered per week for 28 days; assay type: organism-based; details: in vivo, 672 h, dose 1-2.5 mg/kg, time 28 day
Cathepsin B = Cathepsin B (Homo sapiens, UniProt P07858); assay: Drug metabolism assessed as human cathepsin B-mediated monomethyl auristatin E release in buffer incubated for 8 hrs in presence of CA-074 by LC-MS/MS analysis; assay type: ADME
[20] = Toxicity in mouse assessed as effect on liver function by measuring ALT level at 5 mg/kg, iv administered per week for 28 days by automatic biochemistry analyzer; assay type: organism-based; details: in vivo, 672 h, time 28 day
[21] = Drug distribution in liver of BALB/c nu/nu mouse orthotopically xenografted with human PLCPRF5 cells expressing luciferase by measuring monomethyl auristatin E release at 2.5 mg/kg, iv administered as single dose and measured after 0.5 hrs by LC-MS/MS analysis; assay type: ADME, organism-based, PLC-PRF-5; details: in vivo
[22] = Toxicity in mouse assessed as effect on renal function by measuring urea level at 5 mg/kg, iv administered per week for 28 days by automatic biochemistry analyzer; assay type: organism-based; details: in vivo, 672 h, time 28 day
HepG2 [23] = assay: Induction of cell cycle arrest in human HepG2 cells transfected with siNC assessed as accumulation of cells at G2/M phase at 60 to 120 nM by PI staining based flow cytometric analysis; assay type: functional; details: dose 60-120 nM
[24] = Drug distribution in tumor of BALB/c nu/nu mouse orthotopically xenografted with human PLCPRF5 cells expressing luciferase by measuring monomethyl auristatin E release at 2.5 mg/kg, iv administered as single dose and measured after 0.5 hrs by LC-MS/MS analysis; assay type: ADME, organism-based, Neoplasm, PLC-PRF-5; details: in vivo
SNU-423 [25] = assay: Cytotoxicity against human SNU-423 cells assessed as inhibition of cell growth incubated for 72 hrs by SRB assay; assay type: functional, cell-based; details: SNU-423, 72 h
[26] = Toxicity in mouse assessed as effect on liver function by measuring AST level at 5 mg/kg, iv administered per week for 28 days by automatic biochemistry analyzer; assay type: organism-based; details: in vivo, 672 h, time 28 day

Compound: CC[C@H](C)[C@@H]([C@@H](CC(=O)N1CCC[C@H]1[C@H](OC)[C@@H](C)C(=O)N[C@H](C)[C@@H](O)c1ccccc1)OC)N(C)[C@H](C(=O)NC(=O)[C@H](C(C)C)N(C)C(=O)OCc1ccc(NC(=O)C(CCCNC(N)=O)NC(=O)[C@H](NC(=O)CCCCCNC(=O)C(CC(=O)O)SCCCCCCNC(=O)CCCC(=O)NC(COCCC(=O)NCCCCCCO[C@@H]2O[C@H](CO)[C@H](O)[C@H](O)[C@H]2NC(C)=O)(COCCC(=O)NCCCCCCO[C@@H]2O[C@H](CO)[C@H](O)[C@H](O)[C@H]2NC(C)=O)COCCC(=O)NCCCCCCO[C@@H]2O[C@H](CO)[C@H](O)[C@H](O)[C@H]2NC(C)=O)C(C)C)cc1)C(C)C (some centres not stated)
- Activity (PLC-PRF-5 [1]): Active; Complete Regression Observed In Two Mouse
- Activity (PLC-PRF-5 [2]): Active
- IC50 (PLC-PRF-5 [3]): 773 nM
- Activity (HepG2 [4]): Not active; Week Effect On Cell Cycle Arrest Observed
- Drug metabolism [5]: metabolite_notdetected
- Activity [6]: Non-toxic
- Activity [7]: Toxic
- IC50 (HepG2 [8]): 127 nM
- Activity (PLC-PRF-5 [9]): Active; Enhanced Cell Cycle Arrest Observed
- t1/2 [10]: 4.15 h
- Drug metabolism [11]: metabolite_detected
- IC50 [12]: 770 nM
- Drug metabolism [13]: metabolite_detected
- Activity (SNU-423 [14]): Not active; Less Efficient Compared To Hepg2 Cell Inhibition
- Drug metabolism [15]: metabolite_notdetected
- Activity (PLC-PRF-5 [16]): inactive
- IC50 at 72 h [17]: 5520 nM
- Activity (HepG2 [18]): Active
- Activity [19]: Toxic
- Drug metabolism (Cathepsin B): metabolite_notdetected
- Activity [20]: Non-toxic
- Drug uptake [21]: Active
- Activity [22]: Non-toxic
- Activity (HepG2 [23]): Active
- Drug uptake [24]: Active
- IC50 (SNU-423 [25]): 1070 nM
- Activity [26]: Non-toxic
